Laboratory results from patent US10751353B2, “Compositions and methods for treating an aggregation disease or disorder” (Seelos Therapeutics, Inc., priority 2013, dated 2020).
Values joined by “and” are separate entries in the source; they are usually repeats but may differ in a detail not shown here. Equal entries are not always repeated. Where two headings read alike, the source gives them in different places.

Tests used:
[1] = test system: Rat; conditions: cited from earlier work
[2] = test system: Mouse; conditions: cited from earlier work; for LD50: Mouse
[3] = test system: OPMD mouse model; conditions: cited from earlier work
[4] = test system: mutant PABPN1 proteins; conditions: OPMD cell models; cited from earlier work
[5] = test system: Dog; conditions: cited from earlier work; for LD50: Dog
[6] = cited from earlier work
[7] = rabbits; 500 mg intravenously; cited from earlier work
[8] = Preclinical PK study: plasma and muscle concentrations of trehalose after IV bolus and oral gavage; type: in vivo, male Sprague-Dawley (SD) rats
Protocol: The plasma and muscle concentrations of trehalose in male Sprague-Dawley (SD) rats was determined after intravenous bolus (IV) and oral gavage (PO) administration.
The study included 42 SD rats (male, 250 to 350 grams in weight, the Shanghai SLAC Laboratory Animal Co. Ltd.). Animals were administered with a volume of 5 ml/kg trehalose formulation (trehalose dihydrate in sterilized water at 200 mg/mL) to achieve a nominal dose of 1 gr/kg, intravenously or orally.
Blood samples were collected after each dose administration and processed for plasma. Muscle samples (hind leg muscle) were collected and homogenized. The concentrations of trehalose in plasma and muscle homogenate samples were analyzed by qualified bioanalytical LC/MS/MS methods.
Plasma concentration data of trehalose was subjected to a non compartmental pharmacokinetic analysis using WinNonlin software program (version 6.3, Pharsight, Mountain View, Calif.). Zero-time intercept concentration (C0), volume of distribution (Vdss), Clearance (Cl) peak plasma concentrations (Cmax) and the corresponding peak times (Tmax), terminal half-life (T½), mean residence time (MRT) from time zero to the last time point (MRT0-last), MRT from time zero to infinity (MRT0-inf), the area under the plasma concentration-time curve (AUC) from time zero to the last time point (AUC0-last) and AUC from time zero extrapolated to infinity (AUC0-inf) were calculated using the linear/log trapezoidal rule. Nominal sampling times were used to calculate all pharmacokinetic parameters since there was not any deviation larger than 5% between the actual and nominal sampling times.
The values of muscle to plasma concentration and AUC ratio (M/P ratio) were both calculated.

[9] = cited from earlier work; remark: listed apart in the source
[10] = male, Sprague-Dawley, rat, in vivo, iv, 1000 mg/kg
[11] = male, Sprague-Dawley, rat, in vivo, po, 1000 mg/kg

In the case of `OC[C@H]1O[C@H](O[C@H]2O[C@H](CO)[C@@H](O)[C@H](O)[C@H]2O)[C@H](O)[C@@H](O)[C@@H]1O` [trehalose], the LD50 ([1]; Rat, Intravenous) is given as >1000 mg/kg bw, the “signs of toxicity and deaths” value ([1]; rats, oral and intravenous administration) is given as “no deaths occurred” and the LD50 ([2]; Intravenous) is given as >1000 mg/kg bw. The LD50 ([2]; Oral) was >5000 mg/kg bw, the “signs of toxicity and deaths” value ([2]; mice, oral and intravenous administration) was “no deaths occurred” and the aggregate formation [3] was “decreased aggregate formation”. The muscle weakness [3] was “attenuation of muscle weakness”, the “number of pathological skeletal muscle fibers” value [3] was “reduced number of pathological skeletal muscle fibers” and the “aggregation and toxicity of mutant PABPN1 proteins” value [4] was “effective in reducing”. The LD50 ([5]; Intravenous) was >1000 mg/kg bw, the LD50 ([5]; Oral) was >5000 mg/kg bw and the “signs of toxicity and deaths” value ([5]; dogs, oral and intravenous administration) was “no deaths occurred”. The “safety in healthy volunteers” value ([6]; oral doses 10 to 60 gr, apart from mild abdominal symptoms) was “no other safety issues were reported”, the “oral amount that causes diarrhea and bloating” value ([6]; oral) was 40-50 gram per day and the “oral amount that frequently causes diarrhea, bloating and discomfort” value ([6]; oral, humans) was “higher than 50 g a day”. For the same compound, the “time to clearance from the plasma” value [7] was ≤ 60 min, the “trehalose detected in the urine” value [7] was “none was detected” and the “tolerability at the given dosage” value ([8]; 1000 mg/kg IV or PO, male SD rats) was “well tolerated”. For the same compound, the bioavailability ([8]; male, Sprague-Dawley, rat, in vivo, 1000 mg/kg) was 0.601%, the AUC(0-inf) [8, 10] was 781 µg·h/mL and the “CI (total clearance)” value [8, 10] was 17.2 mL/min/kg. For the same compound, the Cmax [8, 10] was 3730 ng/mL and 3730 ng/g, the Vd [8, 10] was 0.685 L/kg and the Vdss [8, 10] was 0.685 L/kg. The clearance [8, 10] was 17.2 mL/min/kg, the “total clearance as share of rat liver blood flow (=55 mL/min/kg)” value [8, 10] was “approximately 31.3%” and the AUC(0-t) ([8]; male, Sprague-Dawley, rat, in vivo, iv, 1000 mg/kg, AUC0-last) was 778 µg·h/mL. The Kp ([8]; male, Sprague-Dawley, rat, in vivo, iv, 1000 mg/kg, AUC ratio = Muscle AUC0-inf/Plasma AUC0-inf) was 0.234, the Kp ([8]; male, Sprague-Dawley, rat, in vivo, iv, 1000 mg/kg, mean ratios of muscle trehalose concentration to plasma concentration) was 2.88 to 3.76 and the AUC(0-t) ([8]; male, Sprague-Dawley, rat, in vivo, iv, 1000 mg/kg, muscle exposure AUC0-last (48 hr)) was 107 µg·h/mL. For the same compound, the AUC0-inf/AUC0-last [8, 11] was 108%, the AUC0-last [8, 11] was 4.52 µg·h/mL and the AUC(0-inf) [8, 11] was 4.87 µg·h/mL. It also gave a Cmax [8, 11] of 4280 ng/mL, a T1/2 [8, 11] of 0.740 h and an AUC(0-t) ([8]; male, Sprague-Dawley, rat, in vivo, po, 1000 mg/kg, AUC0-last) of 4.52 µg·h/mL. It also gave an MRT inf ([8]; male, Sprague-Dawley, rat, in vivo, po, 1000 mg/kg, MRT0-inf) of 1.26 h, an MRT last ([8]; male, Sprague-Dawley, rat, in vivo, po, 1000 mg/kg, MRT0-last) of 1.04 h and a half-life ([8]; male, Sprague-Dawley, rat, in vivo, po, 1000 mg/kg, T1/2) of 0.74 h. The “cellular uptake and retention after rapid intravenous administration” value ([8]; rat, in vivo, iv) was 48 to 72 h, the AUC0-last ([8]; rat, in vivo, iv, 1000 mg/kg) was 107000 ng·h/g and the AUC(0-inf) ([8]; rat, in vivo, iv, 1000 mg/kg) was 183000 ng·h/g. For the same compound, the “muscle samples of oral group” value ([8]; rat, in vivo, po, 1000 mg/kg) was “below LLOQ”, the “plasma and muscle concentrations of trehalose, formulation administered orally” value ([8]; rat, in vivo, po, 1000 mg/kg) was “undetectable” and the “share of ingested trehalose absorbed into the blood stream” value ([9]; oral ingestion) was “Less than 0.5%”. For the same compound, the “share of trehalose not absorbed into the blood stream” value ([9]; oral) was “Over 99.5%”.
